According to patent US20210247277A1, “Pretreatment Method for Fluorescent Image Diagnosis” (Goryo Chemical, Inc., priority 2018, published 2021):

What was measured:
[1] = tested on: lymph nodes including sentinel lymph node (breast cancer metastasis); experiment: Fluorescence increase in lymph node clinical specimens resected during breast cancer surgery; conditions: 50 μM in PBS
Description: After pretreatment of lymph node specimens resected during breast cancer surgery in PBS(−) for 0 minutes, 1 minute, 5 minutes, 10 minutes or an appropriate course of time, increases of fluorescence at 10 minutes after impregnation with a 50 μM gGlu-HMRG solution from that immediately after the impregnation are shown. A specimen diagnosed with cancer metastasis in pathological diagnosis is indicated by a filled circle, and a specimen confirmed to have no cancer metastasis is indicated by an open triangle.
Lymph nodes including sentinel lymph node excised for the purpose of pathological diagnosis during breast cancer surgery were divided and transported from the operating room to an inspection room in a state wrapped in gauze wetted with PBS. A reagent and PBS (140 mM NaCl, 2.7 mM KCl, 10 mM PO4^3−, pH=7.4) at room temperature were used. A PBS impregnated sample was impregnated with a container where PBS was placed, and continuously impregnated for 1 minute, 5 minutes, 10 minutes, or an appropriate course of time from 1 minute to 30 minutes. A PBS non-impregnated sample was stored in state wrapped in gauze wetted with PBS to prevent drying out, instead of being impregnated with PBS, and used in fluorescence measurement. The lymph nodes were carefully taken out with tweezers and put on a Petri dish, and visible images of autofluorescence were taken in a fluorescence measuring machine. 50 μM gGlu-HMRG dissolved in PBS was added to the Petri dish where the lymph nodes were placed, until the lymph nodes completely soaked therein. The fluorescence measurement was continued. The pathological diagnosis of the specimens used in this test was also conducted and checked against final results about whether cancer metastasized to each lymph node.
The fluorescence intensity was indicated by a ratio to the fluorescence intensity of a fluorescence intensity reference plate having a constant fluorescence intensity (measured fluorescence intensity/fluorescence intensity of the fluorescence intensity reference plate).

HeLa cells spheroid = experiment: Time-dependent fluorescence intensity in HeLa cell spheroid (fluorescence microscope); assay type: cell-based, human; conditions: 1 μM; washed with HBSS and probe in HBSS, compared with PBS(−) 10 min and probe in PBS(−)
Description: Time-dependent changes in fluorescence intensity are shown for a HeLa cells spheroid which was washed with HBSS and then impregnated with a 1 μM solution of gGlu-HMRG dissolved in HBSS (upper), and for a HeLa cells spheroid which was impregnated with PBS(−) for 10 minutes and then impregnated with a 1 μM solution of gGlu-HMRG dissolved in PBS(−) (lower).
HeLa cells were inoculated at 10^5 cells/well and cultured for 4 to 6 days. The obtained spheroid was put on a glass bottom dish and cultured for about 3 hours. Then, the culture solution was removed, and the spheroid was impregnated with PBS(−) for 10 minutes. A control was washed with HBSS without being impregnated with PBS(−). A 1 μM solution of gGlu-HMRG dissolved in PBS(−) or HBSS was added to the spheroid impregnated with PBS(−) or the control spheroid. Each spheroid immediately (0 minutes), 10 minutes, 20 minutes, 30 minutes, and 60 minutes after addition of the gGlu-HMRG solution was photographed under a fluorescence microscope (Leica DMI 6000 CS, lens: 10×, filter Leica L5, excitation wavelength: 460 to 500 nm, fluorescence wavelength: 512 to 542 nm). Transmitted light images of the spheroid were taken 10 minutes after impregnated with PBS(−).

HeLa cell spheroid = experiment: Quantification of probe reaction and penetration in HeLa cell spheroid (fluorescence intensity by depth); assay type: cell-based, human
Description: (§1) FIG. 4 illustrates a method for analyzing the penetration or reaction of reagents into or with the spheroid. When “Depth” shown in FIGS. 5 to 10 was, for example, 200 μm, the fluorescence intensity of an open region in the illustration was determined from fluorescence intensity observed by fluorescence microscope, wherein the open region has the inside circle at 200 μm inside from the outer periphery and has the outside circle at 100 μm outside from the aforementioned inside circle as shown in the drawing.
HeLa cells (human uterine cervical cancer cell line) or A549 cells (human alveolar basal epithelial adenocarcinoma cell line) were inoculated at 1×10^4 cells to Nunclon Sphera and cultured for 7 to 14 days. Each obtained spheroid was allowed to adhere to a poly-L-lysine-coated glass bottom dish over approximately 24 hours. The medium was replaced with a buffer, and the spheroid was incubated at room temperature for 10 minutes (impregnation, rinse). […] An area (ROI) having the distance from surface shown in FIG. 4 was captured with ImageJ, and increase in the average luminance between the start of measurement and 5 minutes later was analyzed. Fluorescence was also observed by impregnating with saline and addition of gGlu-HMRG dissolved in PBS(−).
(§2) The buffers used and their composition are as follows.
(§3) PBS(−): 140 mM NaCl, 2.7 mM KCl, 10 mM PO4^3− (pH=7.4) PBS(+): PBS(−) described above as well as 0.90 mM CaCl2, 0.33 mM MgCl2 (pH=7.4) PBS−Ca: PBS(−) described above as well as 0.90 mM CaCl2 (pH=7.4) PBS−Mg: PBS(−) described above as well as 0.33 mM MgCl2 (pH=7.4) PBS−EDTA: PBS(−) described above as well as 0.2 mM EDTA (pH=7.4)
(§4) To evaluate the influence of divalent ion (calcium, etc.)-dependent adhesion, fluorescence was observed under the same conditions as in Example 3 except that the following buffers were used.
(§5) (1) No pretreatment (no rinse) and impregnation with a solution of gGlu-HMRG dissolved in PBS(−) (2) Pretreatment by Impregnating with PBS(−) (3) Pretreatment by Impregnating with PBS(+) (4) Pretreatment by impregnating with PBS(−)+0.2 mM EDTA

A549 cell spheroid = experiment: Quantification of probe reaction and penetration in A549 cell spheroid (fluorescence intensity by depth); assay type: cell-based, human
Description: as §1
HeLa cells (human uterine cervical cancer cell line) or A549 cells (human alveolar basal epithelial adenocarcinoma cell line) were inoculated at 1×10^4 cells to Nunclon Sphera and cultured for 7 to 14 days. Each obtained spheroid was allowed to adhere to a poly-L-lysine-coated glass bottom dish over approximately 24 hours. The medium was replaced with a buffer, and the spheroid was incubated at room temperature for 10 minutes (impregnation, rinse). The buffer in the dish was replaced with each buffer containing gGlu-HMRG dissolved to attain a final concentration of 0.1 μM (A549 cells) or 1 μM (HeLa cells), followed by observation under a fluorescence microscope (Leica DMI 6000 CS, lens: 10×, filter Leica L5, ex. 460 to 500 nm, em. 512 to 542 nm). An area (ROI) having the distance from surface shown in FIG. 4 was captured with ImageJ, and increase in the average luminance between the start of measurement and 5 minutes later was analyzed. Fluorescence was also observed by impregnating with saline and addition of gGlu-HMRG dissolved in PBS(−).
as §2, §3, §4, §5
Fluorescence was measured by the same method as in Example 3 except that a 5 μM FeRhoNox-1 probe was used instead of gGlu-HMRG as the fluorescent probe. The cells used were only A549 cells.

HeLa cells = experiment: Influence of pH on fluorescence of HeLa cells cultured on glass surface; assay type: cell-based, human; conditions: 2 μM, 20 minutes, 37° C.
Description: (§6) Cells cultured on glass surface were reacted with gGlu-HMRG, and fluorescence intensity was compared. HeLa cells were inoculated at the same density to chambers of a 4-chamber glass bottom dish. The cells were cultured in DMEM+8% FBS, P.S. under conditions of 37° C. and 5% CO2 for approximately 8 hours. The cells were rinsed three times with PBS(−) adjusted to pH 6.5, 7.3, or 7.8, which was then replaced with each solution supplemented with 2 μM gGlu-HMRG. The cells were stained at 37° C. under 5% CO2 for 20 minutes and observed under a fluorescence microscope under the same conditions as above without the solution replaced. 100 ms exposure, gain 5 Int 5, ND1. Fluorescence intensity from 5 cells in fluorescence images, and background fluorescence intensity were measured with reference to superimposed images with DIC, and the mean and standard deviation were plotted. The fluorescence intensity of gGlu-HMRG and the fluorescence intensity of HMRG (fluorescent substance after reaction with GGT) were measured at each pH.

[2] = Fluorescence intensity of the probe and of its fluorescent product at each pH; assay type: physicochemical; conditions: dependence on pH
Description: as §6

[3] = PBS(−) + 0.2 mM EDTA, compared with PBS(−)

Molecule: Nc1ccc2c(c1)Oc1cc(NC(=O)CC[C@H](N)C(=O)O)ccc1C21OCc2ccccc21 (stereo partly shown) [gGlu-HMRG]
- Increase in fluorescence intensity in the lymph nodes 10 minutes after the start of measurement ([1]; 5 specimens confirmed to have no cancer metastasis in pathological diagnosis): little fluorescence increase
- Increase in fluorescence intensity in the lymph nodes 10 minutes after the start of measurement ([1]; some specimens confirmed to have cancer, without impregnation with PBS): only weak fluorescence
- Increase in fluorescence intensity in the lymph nodes 10 minutes after the start of measurement ([1]; specimens confirmed to have cancer, impregnated with PBS (regardless of impregnating time)): strong fluorescence
- Increase of fluorescence in the spheroid over 0-60 minutes (HeLa cells spheroid): slower increase of fluorescence in the central portion of the spheroid
- Increase of fluorescence by distance from surface, 5 minutes (HeLa cell spheroid; [3]): further accelerated the increase of fluorescence
- Increase of fluorescence by distance from surface, 5 minutes (HeLa cell spheroid; PBS(−) impregnation 10 minutes, probe in PBS(−), compared with HBSS without wash): increase of fluorescence was mora rapid
- Increase of fluorescence by distance from surface, 5 minutes (HeLa cell spheroid; PBS(−) impregnation compared with no impregnation or PBS(+)): accelerated the increase of fluorescence at a location distant from surface
- Increase of fluorescence by distance from surface, 5 minutes (HeLa cell spheroid; probe in HBSS, no buffer wash, 1 μM, 50 μM (FIG. 5 legend)): increase of fluorescence was slowed with the increasing distance from surface
- Increase rate of fluorescence, 5 minutes (A549 cell spheroid; PBS(+) impregnation): almost equivalent to that of no impregnation
- Increase of fluorescence intensity by depth, 5 minutes (A549 cell spheroid; [3]): larger increase of fluorescence intensity at a site deeper from surface
- Increase rate of fluorescence intensity, 5 minutes (A549 cell spheroid; PBS(−) impregnating treatment 10 min compared with PBS(+), 0.1 μM, 50 μM (FIG. 6 legend)): accelerated the increase rate of fluorescence intensity
- Increase rate of fluorescence intensity, 5 minutes (A549 cell spheroid; PBS−Ca (PBS(−) + 0.90 mM CaCl2) 10 min, as in PBS(+)): less increased fluorescence
- Increase rate of fluorescence intensity, 5 minutes (A549 cell spheroid; PBS−Mg (PBS(−) + 0.33 mM MgCl2) 10 min): Substantially the same results as those of PBS(−)
- Increase of fluorescence intensity, 5 minutes (A549 cell spheroid; saline (154 mM NaCl) 10 min): increase of fluorescence intensity was slow
- Fluorescence intensity of cells and background (HeLa cells; PBS(−) at lower pH (pH 6.5, 7.3, 7.8 tested)): lower pH decreased a signal and increased a background
- Fluorescence intensity of cells (HeLa cells; PBS(−) at pH of 7.3 or higher): increased signal intensity
- Fluorescence intensity at each pH [2]: decreased with the elevation of pH

Molecule: Nc1ccc2c(c1)Oc1cc(N)ccc1C21OCc2ccccc21 [HMRG]
- Fluorescence intensity at each pH [2]: decreased with the elevation of pH

Molecule: FeRhoNox-1
- Fluorescence intensity distribution by pretreatment solution, 5 minutes (A549 cell spheroid; 5 μM probe, PBS−, PBS+, PBS+Ca or PBS+EDTA 10 min): same tendency as that obtained using gGlu-HMRG
